{"source": "patent US20080249035A1", "about": "“Polymorph of Clarithromycin (Form V)” (Gruenenthal GmbH, priority 2007, published 2008)", "experiment": "Interconversion tests in acetone (thermodynamic/physical stability of polymorphic forms)", "assay_type": "physicochemical", "experimental": "To investigate physical stability in comparison with the known forms form I and form II, the following experiments were carried out (interconversion tests): • a) about 100 mg of form I and approx. 100 mg of form II were put in a 20 ml vial and suspended in 2.5 ml acetone p.a. • b) about 100 mg of form V and approx. 100 mg of form I were put in a 20 ml vial and suspended in 2.5 ml acetone p.a. • c) about 100 mg of form V and approx. 100 mg of form II were put in a 20 ml vial and suspended in 2.5 ml acetone p.a.\nAll three suspensions were first shaken at room temperature (approx. 20° C.) on a PLS synthesizer at 400 rpm for approx. 2 h. For 20 h the temperature of the suspensions was raised to 40° C. and then left to cool to room temperature (approx. 20° C.) again.\nThen the solids were filtered with suction on a G4 frit, made into a slurry with 0.5 ml acetone p.a., washed, and then dried by suction in an air stream, applying a light vacuum.\nThe crystalline solids were in each case characterized by DSC, XRPD, Raman and TG investigations.", "data": [{"compound": "CC[C@H]1OC(=O)[C@H](C)[C@@H](O[C@H]2C[C@@](C)(OC)[C@@H](O)[C@H](C)O2)[C@H](C)[C@@H](O[C@@H]2O[C@H](C)C[C@H](N(C)C)[C@H]2O)[C@](C)(OC)C[C@@H](C)C(=O)[C@H](C)[C@@H](O)[C@]1(C)O", "note": "[Form I/Form II, clarithromycin]", "values": [{"measurement": "Product (polymorphic form obtained from the starting mixture in the interconversion test)", "setting": "approx. 100 mg of each form suspended in 2.5 ml acetone, approx. 2 h at room temperature (approx. 20° C.), 20 h at 40° C., cooled to room temperature, solids characterized by DSC, XRPD, Raman, TG", "value": "Form II"}]}, {"compound": "CC[C@H]1OC(=O)[C@H](C)[C@@H](O[C@H]2C[C@@](C)(OC)[C@@H](O)[C@H](C)O2)[C@H](C)[C@@H](O[C@@H]2O[C@H](C)C[C@H](N(C)C)[C@H]2O)[C@](C)(OC)C[C@@H](C)C(=O)[C@H](C)[C@@H](O)[C@]1(C)O", "note": "[Form II, clarithromycin]", "values": [{"measurement": "Relative thermodynamic stability of the forms under the test conditions", "setting": "interconversion tests in acetone, 20 to 40° C.", "value": "thermodynamically more stable than form V as well as more stable than form I"}]}]}
